Test results taken from patent US20210101874A1, “MICROBIOCIDAL OXADIAZOLE DERIVATIVES” (SYNGENTA PARTICIPATIONS AG, priority 2017, published 2021).

What was measured:
[1] = system: Puccinia recondita f. sp. Tritici; experiment: Puccinia recondita f. sp. tritici / wheat / leaf disc curative (brown rust); format: in vivo; settings: foliar, 200 ppm in the applied formulation, wheat leaf segments cv. Kanzler, applied 1 day after inoculation, compared to untreated, assessed 6 to 8 days after application, read-out: disease control
Experimental: Leaf disks or leaf segments of various plant species are cut from plants grown in a greenhouse. The cut leaf disks or segments are placed in multiwell plates (24-well format) onto water agar. The leaf disks are sprayed with a test solution before (preventative) or after (curative) inoculation. Compounds to be tested are prepared as DMSO solutions (max. 10 mg/ml) which are diluted to the appropriate concentration with 0.025% Tween20 just before spraying. The inoculated leaf disks or segments are incubated under defined conditions (temperature, relative humidity, light, etc.) according to the respective test system. A single evaluation of disease level is carried out 3 to 14 days after inoculation, depending on the pathosystem. Percent disease control relative to the untreated check leaf disks or segments is then calculated.
Wheat leaf segments cv. Kanzler are placed on agar in multiwell plates (24-well format). The leaf segments are then inoculated with a spore suspension of the fungus. Plates were stored in darkness at 19° C. and 75% relative humidity. The formulated test compound diluted in water was applied 1 day after inoculation. The leaf segments were incubated at 19° C. and 75% relative humidity under a light regime of 12 hours light/12 hours darkness in a climate cabinet and the activity of a compound was assessed as percent disease control compared to untreated when an appropriate level of disease damage appears in untreated check leaf segments (6 to 8 days after application).
The following compounds at 200 ppm in the applied formulation give at least 80% disease control in this test when compared to untreated control leaf disks under the same conditions, which show extensive disease development.

[2] = system: Glomerella lagenarium (Colletotrichum lagenarium); experiment: Glomerella lagenarium (Colletotrichum lagenarium) liquid culture / cucumber / preventative (anthracnose); format: cell-based; settings: Colletotrichum orbiculare; 20 ppm in the applied formulation; conidia in PDB nutrient broth, 24° C.; 3 to 4 days after application; compared to untreated; read-out: disease control (inhibition of growth measured photometrically)
Summary of the method: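 Test compound, diluted from DMSO, was mixed in microtiter wells with fungal conidia taken from cryogenic storage and suspended in PDB nutrient broth. After 3 to 4 days at 24 °C, photometric growth measurement gave antifungal activity as a percentage of the untreated control.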

[3] = system: Puccinia recondita f. sp. Tritici; experiment: Puccinia recondita f. sp. tritici / wheat / leaf disc preventative (brown rust); format: in vivo; settings: foliar, 200 ppm in the applied formulation, wheat leaf segments cv. Kanzler, inoculated 1 day after application, compared to untreated, assessed 7 to 9 days after application, read-out: disease control
Summary of the method: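 Single evaluation 7–9 d after spraying: % disease control compared with untreated leaf segments. Protocol: cv. Kanzler segments, preventative spray at 200 ppm, spore inoculation at day 1, 19° C., 75% rh, 12 h light/12 h dark.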

CCCS(=O)(=O)NCc1ccc(-c2noc(C(F)(F)F)n2)c(F)c1 [Compound 2.5, N-[[3-fluoro-4-[5-(trifluoromethyl)-1,2,4-oxadiazol-3-yl]phenyl]methyl] propane-1-sulfonamide]
≥ 80%: pest or weed control at 200 ppm [1] | inhibition at 20 ppm [2] | pest or weed control at 200 ppm [3]

CCCS(=O)(=O)NCc1ccc(-c2noc(C(F)(F)F)n2)cc1F [Compound 2.6, N-[[2-fluoro-4-[5-(trifluoromethyl)-1,2,4-oxadiazol-3-yl]phenyl]methyl] propane-1-sulfonamide]
≥ 80%: pest or weed control at 200 ppm [1] | inhibition at 20 ppm [2] | pest or weed control at 200 ppm [3]

C=CCS(=O)(=O)NCc1ccc(-c2noc(C(F)(F)F)n2)cc1 [Compound 2.7, N-[[4-[5-(trifluoromethyl)-1,2,4-oxadiazol-3-yl]phenyl]methyl] prop-2-ene-1-sulfonamide]
≥ 80%: pest or weed control at 200 ppm [1] | inhibition at 20 ppm [2] | pest or weed control at 200 ppm [3]

COC(=O)CCS(=O)(=O)NCc1ccc(-c2noc(C(F)(F)F)n2)cc1 [Compound 2.8, methyl 3-[[4-[5-(trifluoromethyl)-1,2,4-oxadiazol-3-yl]phenyl]methyl-sulfamoyl] propanoate]
≥ 80%: pest or weed control at 200 ppm [1] | inhibition at 20 ppm [2] | pest or weed control at 200 ppm [3]

CS(=O)(=O)NCc1ccc(-c2noc(C(F)(F)F)n2)cc1 [Compound 2.13, N-[[4-[5-(trifluoromethyl)-1,2,4-oxadiazol-3-yl]phenyl]methyl] methanesulfon-amide]
≥ 80%: pest or weed control at 200 ppm [1] | inhibition at 20 ppm [2] | pest or weed control at 200 ppm [3]

CNS(=O)(=O)NCc1ccc(-c2noc(C(F)(F)F)n2)cc1 [Compound 2.14, N-(methylsulfamoyl)-1-[4-[5-(trifluoromethyl)-1,2,4-oxadiazol-3-yl]phenyl] methanamine]
≥ 80%: pest or weed control at 200 ppm [1] | inhibition at 20 ppm [2] | pest or weed control at 200 ppm [3]

C=CCS(=O)(=O)NCc1ccc(-c2noc(C(F)(F)F)n2)c(F)c1 [Compound 2.15, N-[[3-fluoro-4-[5-(trifluoromethyl)-1,2,4-oxadiazol-3-yl]phenyl]methyl] prop-2-ene-1-sulfonamide]
≥ 80%: pest or weed control at 200 ppm [1] | inhibition at 20 ppm [2] | pest or weed control at 200 ppm [3]

COC(=O)CCS(=O)(=O)NCc1ccc(-c2noc(C(F)(F)F)n2)c(F)c1 [Compound 2.16, methyl 3-[[3-fluoro-4-[5-(trifluoromethyl)-1,2,4-oxadiazol-3-yl]phenyl]methyl-sulfamoyl] propanoate]
≥ 80%: pest or weed control at 200 ppm [1] | inhibition at 20 ppm [2] | pest or weed control at 200 ppm [3]

COCCS(=O)(=O)NCc1ccc(-c2noc(C(F)(F)F)n2)c(F)c1 [Compound 2.17, N-[[3-fluoro-4-[5-(trifluoromethyl)-1,2,4-oxadiazol-3-yl]phenyl]methyl]-2-methoxy-ethanesulfon-amide]
≥ 80%: pest or weed control at 200 ppm [1] | inhibition at 20 ppm [2] | pest or weed control at 200 ppm [3]

C/C=C/S(=O)(=O)NCc1ccc(-c2noc(C(F)(F)F)n2)c(F)c1 [Compound 2.19, (E)-N-[[3-fluoro-4-[5-(trifluoromethyl)-1,2,4-oxadiazol-3-yl]phenyl]methyl] prop-1-ene-1-sulfonamide]
≥ 80%: pest or weed control at 200 ppm [1] | inhibition at 20 ppm [2] | pest or weed control at 200 ppm [3]

CCS(=O)(=O)NCc1ccc(-c2noc(C(F)(F)F)n2)c(F)c1 [Compound 2.24, N-[[3-fluoro-4-[5-(trifluoromethyl)-1,2,4-oxadiazol-3-yl]phenyl]methyl] ethanesulfon-amide]
≥ 80%: pest or weed control at 200 ppm [1] | inhibition at 20 ppm [2] | pest or weed control at 200 ppm [3]

CCS(=O)(=O)NCc1ccc(-c2noc(C(F)(F)F)n2)cc1F [Compound 2.25, N-[[2-fluoro-4-[5-(trifluoromethyl)-1,2,4-oxadiazol-3-yl]phenyl]methyl] ethanesulfon-amide]
≥ 80%: pest or weed control at 200 ppm [1] | inhibition at 20 ppm [2] | pest or weed control at 200 ppm [3]

CS(=O)(=O)NCc1ccc(-c2noc(C(F)(F)F)n2)c(F)c1 [Compound 2.26, N-[[3-fluoro-4-[5-(trifluoromethyl)-1,2,4-oxadiazol-3-yl]phenyl]methyl] methanesulfon-amide]
≥ 80%: pest or weed control at 200 ppm [1] | inhibition at 20 ppm [2] | pest or weed control at 200 ppm [3]

CS(=O)(=O)NCc1ccc(-c2noc(C(F)(F)F)n2)cc1F [Compound 2.27, N-[[2-fluoro-4-[5-(trifluoromethyl)-1,2,4-oxadiazol-3-yl]phenyl]methyl] methanesulfon-amide]
≥ 80%: pest or weed control at 200 ppm [1] | inhibition at 20 ppm [2] | pest or weed control at 200 ppm [3]

CNS(=O)(=O)NCc1ccc(-c2noc(C(F)(F)F)n2)c(F)c1 [Compound 2.28, 1-[3-fluoro-4-[5-(trifluoromethyl)-1,2,4-oxadiazol-3-yl]phenyl]-N-(methylsulfamoyl) methanamine]
≥ 80%: pest or weed control at 200 ppm [1] | inhibition at 20 ppm [2] | pest or weed control at 200 ppm [3]

CNS(=O)(=O)NCc1ccc(-c2noc(C(F)(F)F)n2)cc1F [Compound 2.29, 1-[2-fluoro-4-[5-(trifluoromethyl)-1,2,4-oxadiazol-3-yl]phenyl]-N-(methylsulfamoyl) methanamine]
≥ 80%: pest or weed control at 200 ppm [1] | inhibition at 20 ppm [2] | pest or weed control at 200 ppm [3]

CN(C)S(=O)(=O)NCc1ccc(-c2noc(C(F)(F)F)n2)c(F)c1 [Compound 2.30, 3-[4-[(dimethyl-sulfamoylamino)methyl]-2-fluoro-phenyl]-5-(trifluoromethyl)-1,2,4-oxadiazole]
≥ 80%: pest or weed control at 200 ppm [1] | inhibition at 20 ppm [2] | pest or weed control at 200 ppm [3]

CN(C)S(=O)(=O)NCc1ccc(-c2noc(C(F)(F)F)n2)cc1F [Compound 2.31, 3-[4-[(dimethyl-sulfamoylamino)methyl]-3-fluoro-phenyl]-5-(trifluoromethyl)-1,2,4-oxadiazole]
≥ 80%: pest or weed control at 200 ppm [1] | inhibition at 20 ppm [2] | pest or weed control at 200 ppm [3]

C=CCS(=O)(=O)NCc1ccc(-c2noc(C(F)(F)F)n2)cc1F [Compound 2.32, N-[[2-fluoro-4-[5-(trifluoromethyl)-1,2,4-oxadiazol-3-yl]phenyl]methyl] prop-2-ene-1-sulfonamide]
≥ 80%: pest or weed control at 200 ppm [1] | inhibition at 20 ppm [2] | pest or weed control at 200 ppm [3]

COCCS(=O)(=O)NCc1ccc(-c2noc(C(F)(F)F)n2)cc1F [Compound 2.34, N-[[2-fluoro-4-[5-(trifluoromethyl)-1,2,4-oxadiazol-3-yl]phenyl]methyl]-2-methoxy-ethanesulfon-amide]
≥ 80%: pest or weed control at 200 ppm [1] | inhibition at 20 ppm [2] | pest or weed control at 200 ppm [3]

C/C=C/S(=O)(=O)NCc1ccc(-c2noc(C(F)(F)F)n2)cc1F [Compound 2.36, (E)-N-[[2-fluoro-4-[5-(trifluoromethyl)-1,2,4-oxadiazol-3-yl]phenyl]methyl] prop-1-ene-1-sulfonamide]
≥ 80%: pest or weed control at 200 ppm [1] | inhibition at 20 ppm [2] | pest or weed control at 200 ppm [3]

Cn1ccc(S(=O)(=O)NCc2ccc(-c3noc(C(F)(F)F)n3)cc2)n1 [Compound 3.10, 1-methyl-N-[[4-[5-(trifluoromethyl)-1,2,4-oxadiazol-3-yl]phenyl]methyl] pyrazole-3-sulfonamide]
≥ 80%: pest or weed control at 200 ppm [1] | inhibition at 20 ppm [2] | pest or weed control at 200 ppm [3]
